Test [1] has as its target T1, Muscarinic acetylcholine receptor M1 (Homo sapiens, UniProt P11229).
T1 sequence (P11229 whole entry): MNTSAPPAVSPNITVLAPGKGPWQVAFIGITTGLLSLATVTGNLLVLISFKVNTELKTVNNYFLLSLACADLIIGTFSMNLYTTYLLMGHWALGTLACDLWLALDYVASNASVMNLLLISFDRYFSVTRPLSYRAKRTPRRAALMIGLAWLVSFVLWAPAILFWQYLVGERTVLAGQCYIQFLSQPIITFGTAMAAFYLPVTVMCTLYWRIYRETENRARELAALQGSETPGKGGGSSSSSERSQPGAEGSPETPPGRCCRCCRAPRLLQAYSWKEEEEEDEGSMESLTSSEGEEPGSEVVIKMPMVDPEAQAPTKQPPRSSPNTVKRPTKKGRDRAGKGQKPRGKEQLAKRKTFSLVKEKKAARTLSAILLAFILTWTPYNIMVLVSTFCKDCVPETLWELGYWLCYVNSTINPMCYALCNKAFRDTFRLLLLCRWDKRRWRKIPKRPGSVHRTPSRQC
In kind it is functional, cell-based.

Test [2] deals with T1, Muscarinic acetylcholine receptor M1. In kind it is functional.
The target of test [3] is D(1A) dopamine receptor (Homo sapiens, UniProt P21728). It is filed as functional, cell-based.
Test [4] concerns the target Gamma-aminobutyric acid receptor subunit alpha-1 (Rattus norvegicus, UniProt P62813). It is filed as functional.
Test [5] concerns the target Glutamate receptor ionotropic, NMDA 1 (Rattus norvegicus, UniProt P35439).
In test [6] the target is Histamine H2 receptor (Homo sapiens, UniProt P25021). It is filed as functional, cell-based.
Test [7] deals with T2, 5-hydroxytryptamine receptor 1A (Homo sapiens, UniProt P08908).
T2 sequence (P08908 whole entry): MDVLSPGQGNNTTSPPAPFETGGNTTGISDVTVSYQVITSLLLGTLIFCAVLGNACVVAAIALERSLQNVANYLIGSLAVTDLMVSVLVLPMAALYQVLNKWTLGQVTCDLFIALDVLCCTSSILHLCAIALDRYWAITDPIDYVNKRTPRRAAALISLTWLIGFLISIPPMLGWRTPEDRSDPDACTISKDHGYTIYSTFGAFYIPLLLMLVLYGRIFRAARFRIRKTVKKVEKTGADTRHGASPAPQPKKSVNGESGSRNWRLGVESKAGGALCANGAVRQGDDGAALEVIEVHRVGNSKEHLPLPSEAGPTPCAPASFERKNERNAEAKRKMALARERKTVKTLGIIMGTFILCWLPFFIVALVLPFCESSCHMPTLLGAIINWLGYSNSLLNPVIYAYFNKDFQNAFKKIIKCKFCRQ
It is filed as functional, cell-based.

In test [8] the target is 5-hydroxytryptamine receptor 2B (Homo sapiens, UniProt P41595). It is filed as functional, cell-based.
Test [9] addresses T3, 5-hydroxytryptamine receptor 3A (Homo sapiens, UniProt P46098).
T3 sequence (P46098 whole entry): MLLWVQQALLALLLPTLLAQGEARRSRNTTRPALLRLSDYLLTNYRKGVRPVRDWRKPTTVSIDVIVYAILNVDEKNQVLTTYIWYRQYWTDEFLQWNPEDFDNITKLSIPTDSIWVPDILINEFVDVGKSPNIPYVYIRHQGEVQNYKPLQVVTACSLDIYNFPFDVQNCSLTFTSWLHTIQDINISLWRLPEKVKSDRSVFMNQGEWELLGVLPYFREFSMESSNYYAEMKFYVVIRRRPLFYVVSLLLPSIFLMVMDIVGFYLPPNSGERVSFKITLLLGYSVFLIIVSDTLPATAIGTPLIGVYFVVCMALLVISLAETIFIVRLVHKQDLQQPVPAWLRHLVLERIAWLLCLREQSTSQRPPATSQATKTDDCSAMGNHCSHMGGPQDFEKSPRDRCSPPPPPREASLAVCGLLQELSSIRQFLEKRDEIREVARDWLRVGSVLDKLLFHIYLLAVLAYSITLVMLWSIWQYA
It is filed as functional.

Test [10] has as its target Kappa-type opioid receptor (Homo sapiens, UniProt P41145).
For test [11], the target named is T4, Prostaglandin G/H synthase 1 (Rattus norvegicus, UniProt Q63921).
T4 sequence (Q63921 whole entry): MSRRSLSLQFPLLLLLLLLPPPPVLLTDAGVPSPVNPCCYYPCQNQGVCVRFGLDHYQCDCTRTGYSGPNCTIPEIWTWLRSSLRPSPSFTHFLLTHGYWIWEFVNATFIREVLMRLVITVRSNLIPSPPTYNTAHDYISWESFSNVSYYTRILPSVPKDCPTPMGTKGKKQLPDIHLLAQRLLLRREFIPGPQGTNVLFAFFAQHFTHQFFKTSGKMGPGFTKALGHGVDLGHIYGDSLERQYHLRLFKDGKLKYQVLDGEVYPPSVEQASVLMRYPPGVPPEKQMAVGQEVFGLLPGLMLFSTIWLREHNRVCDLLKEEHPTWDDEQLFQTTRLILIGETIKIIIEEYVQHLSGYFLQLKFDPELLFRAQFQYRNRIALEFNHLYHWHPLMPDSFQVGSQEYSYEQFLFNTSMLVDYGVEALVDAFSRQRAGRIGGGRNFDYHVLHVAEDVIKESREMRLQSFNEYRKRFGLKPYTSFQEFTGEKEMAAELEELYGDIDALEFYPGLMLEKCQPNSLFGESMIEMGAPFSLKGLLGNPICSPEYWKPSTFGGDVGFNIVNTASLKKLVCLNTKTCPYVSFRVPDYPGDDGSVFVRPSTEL
In kind it is functional.

Test [12] has as its target Sodium-dependent dopamine transporter (Homo sapiens, UniProt Q01959).
The target of test [13] is T5, Alpha-1A adrenergic receptor (Homo sapiens, UniProt P35348).
T5 sequence (P35348 whole entry): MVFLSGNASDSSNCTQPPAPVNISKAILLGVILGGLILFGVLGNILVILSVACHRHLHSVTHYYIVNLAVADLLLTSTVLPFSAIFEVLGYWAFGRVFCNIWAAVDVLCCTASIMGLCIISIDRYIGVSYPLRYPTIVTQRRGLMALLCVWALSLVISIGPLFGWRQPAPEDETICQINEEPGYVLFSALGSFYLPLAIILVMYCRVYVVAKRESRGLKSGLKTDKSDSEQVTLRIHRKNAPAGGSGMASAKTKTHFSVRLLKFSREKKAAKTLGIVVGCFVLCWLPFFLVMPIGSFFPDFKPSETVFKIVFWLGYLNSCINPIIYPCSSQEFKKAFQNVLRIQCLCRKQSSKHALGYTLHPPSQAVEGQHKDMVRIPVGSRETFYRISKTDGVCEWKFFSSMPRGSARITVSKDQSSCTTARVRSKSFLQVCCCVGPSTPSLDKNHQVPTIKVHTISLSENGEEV
It is filed as functional, cell-based.

SMILES strings stand for the structures. Where only a bound is given, the exact number is not on record here.
Further: assay procedure not described here.

D(1A) dopamine receptor, sequence (P21728 whole entry): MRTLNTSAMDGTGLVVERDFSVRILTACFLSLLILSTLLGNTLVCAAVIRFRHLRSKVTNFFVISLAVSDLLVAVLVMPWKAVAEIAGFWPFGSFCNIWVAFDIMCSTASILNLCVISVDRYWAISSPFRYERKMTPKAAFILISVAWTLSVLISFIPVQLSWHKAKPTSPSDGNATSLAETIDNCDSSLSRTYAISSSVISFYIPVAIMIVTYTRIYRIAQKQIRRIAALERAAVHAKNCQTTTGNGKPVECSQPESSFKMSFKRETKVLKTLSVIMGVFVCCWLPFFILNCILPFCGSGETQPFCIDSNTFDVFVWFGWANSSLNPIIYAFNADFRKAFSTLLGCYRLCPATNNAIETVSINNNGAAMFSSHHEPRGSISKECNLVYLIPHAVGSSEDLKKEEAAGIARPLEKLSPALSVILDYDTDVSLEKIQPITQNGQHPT
5-hydroxytryptamine receptor 2B, sequence (P41595 whole entry): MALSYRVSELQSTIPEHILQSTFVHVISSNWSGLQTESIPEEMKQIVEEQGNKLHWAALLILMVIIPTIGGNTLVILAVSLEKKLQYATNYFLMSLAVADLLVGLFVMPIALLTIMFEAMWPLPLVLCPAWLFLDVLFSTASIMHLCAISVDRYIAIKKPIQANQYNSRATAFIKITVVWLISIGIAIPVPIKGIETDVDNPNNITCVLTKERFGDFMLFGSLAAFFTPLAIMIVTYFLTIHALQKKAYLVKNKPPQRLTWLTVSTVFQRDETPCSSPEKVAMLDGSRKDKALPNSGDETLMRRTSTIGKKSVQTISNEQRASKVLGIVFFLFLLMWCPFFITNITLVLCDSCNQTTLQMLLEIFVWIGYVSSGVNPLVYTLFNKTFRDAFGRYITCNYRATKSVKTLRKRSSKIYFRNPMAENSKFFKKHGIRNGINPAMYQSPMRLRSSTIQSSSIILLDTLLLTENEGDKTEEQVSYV
Sodium-dependent dopamine transporter, sequence (Q01959 whole entry): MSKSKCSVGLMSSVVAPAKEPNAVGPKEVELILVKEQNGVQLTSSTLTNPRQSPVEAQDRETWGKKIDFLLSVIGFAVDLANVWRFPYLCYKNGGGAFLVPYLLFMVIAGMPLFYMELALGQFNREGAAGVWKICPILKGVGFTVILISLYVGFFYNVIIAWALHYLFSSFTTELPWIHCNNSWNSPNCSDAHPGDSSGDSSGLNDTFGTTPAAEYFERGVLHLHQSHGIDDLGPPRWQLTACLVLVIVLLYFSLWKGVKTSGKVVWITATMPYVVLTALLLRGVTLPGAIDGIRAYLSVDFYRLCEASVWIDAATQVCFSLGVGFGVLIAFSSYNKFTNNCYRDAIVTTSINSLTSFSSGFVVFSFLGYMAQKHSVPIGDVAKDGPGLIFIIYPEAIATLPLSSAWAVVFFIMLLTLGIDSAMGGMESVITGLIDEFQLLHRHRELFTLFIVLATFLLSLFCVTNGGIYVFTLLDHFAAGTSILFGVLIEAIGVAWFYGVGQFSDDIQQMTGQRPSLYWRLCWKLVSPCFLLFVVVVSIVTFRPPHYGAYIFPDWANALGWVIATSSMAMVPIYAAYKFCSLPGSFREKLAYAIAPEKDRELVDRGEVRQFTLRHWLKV
Gamma-aminobutyric acid receptor subunit alpha-1, sequence (P62813 whole entry): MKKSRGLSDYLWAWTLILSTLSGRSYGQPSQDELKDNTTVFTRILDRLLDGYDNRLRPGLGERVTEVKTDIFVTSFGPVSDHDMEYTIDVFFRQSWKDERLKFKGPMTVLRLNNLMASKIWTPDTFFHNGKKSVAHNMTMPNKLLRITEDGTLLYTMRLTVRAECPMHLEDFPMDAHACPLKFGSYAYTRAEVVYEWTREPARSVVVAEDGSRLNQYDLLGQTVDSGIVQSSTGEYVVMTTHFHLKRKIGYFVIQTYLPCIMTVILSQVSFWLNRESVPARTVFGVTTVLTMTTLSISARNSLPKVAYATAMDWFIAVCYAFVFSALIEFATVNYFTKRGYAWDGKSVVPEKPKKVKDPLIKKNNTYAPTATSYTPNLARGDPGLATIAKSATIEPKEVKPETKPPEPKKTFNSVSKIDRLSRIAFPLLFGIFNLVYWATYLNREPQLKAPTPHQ
Kappa-type opioid receptor, sequence (P41145 whole entry): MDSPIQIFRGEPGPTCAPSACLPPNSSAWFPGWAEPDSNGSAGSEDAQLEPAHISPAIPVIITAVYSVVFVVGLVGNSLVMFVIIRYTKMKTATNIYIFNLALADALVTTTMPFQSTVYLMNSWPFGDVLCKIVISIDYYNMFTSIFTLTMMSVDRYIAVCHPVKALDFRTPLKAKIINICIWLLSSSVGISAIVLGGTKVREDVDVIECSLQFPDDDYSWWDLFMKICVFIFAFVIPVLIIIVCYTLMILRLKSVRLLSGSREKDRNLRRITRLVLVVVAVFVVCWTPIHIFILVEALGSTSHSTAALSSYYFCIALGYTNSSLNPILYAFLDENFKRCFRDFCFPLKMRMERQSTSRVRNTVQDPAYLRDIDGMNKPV
Histamine H2 receptor, sequence (P25021 whole entry): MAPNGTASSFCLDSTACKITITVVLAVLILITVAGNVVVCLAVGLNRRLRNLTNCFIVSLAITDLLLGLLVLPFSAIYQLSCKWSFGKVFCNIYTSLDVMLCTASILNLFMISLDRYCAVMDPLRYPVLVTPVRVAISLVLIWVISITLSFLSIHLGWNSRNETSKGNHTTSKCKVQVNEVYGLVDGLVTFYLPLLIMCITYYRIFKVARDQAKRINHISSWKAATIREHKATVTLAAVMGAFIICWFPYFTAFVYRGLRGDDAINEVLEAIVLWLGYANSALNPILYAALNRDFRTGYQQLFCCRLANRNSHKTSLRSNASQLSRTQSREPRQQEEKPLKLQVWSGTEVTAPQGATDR

In general, AC50 refers to the concentration giving half of the maximal activity seen. Low values mean greater potency, high ones weaker potency. `COc1ccc2c(c1)OC(C)(C)C(c1ccccc1)C2c1ccc(OCCN2CCCC2)cc1` (centres undefined) [ORMELOXIFENE] displayed an AC50 in test [1] of 10.5 µM.

In the case of `Cc1nc(-c2ccc(OCC(C)C)c(C#N)c2)sc1C(=O)O` [FEBUXOSTAT], in [1], the AC50 was over 30 µM.

For `COc1ccc(-c2cc(=O)c3c(O)cc(O[C@@H]4O[C@H](CO[C@@H]5O[C@@H](C)[C@H](O)[C@@H](O)[C@H]5O)[C@@H](O)[C@H](O)[C@H]4O)cc3o2)cc1O` [DIOSMIN], the AC50 in test [1] was over 30 µM.

`CCOc1ccc(/C=C2\NCCc3cc(OCC)c(OCC)cc32)cc1OCC` [DROTAVERINE]: the concentration at half-maximal activity (AC50) in test [1] was over 30 µM.

In the case of `CCOC(=O)CC(SP(=S)(OC)OC)C(=O)OCC` (centres undefined) [MALATHION], the AC50 in test [1] was over 30 µM.

In test [1], `CCO[C@@H](Cc1ccc(OCCn2c(C)ccc2-c2ccc(SC)cc2)cc1)C(=O)O` [SAROGLITAZAR] showed an AC50 of 18.7 µM.

The compound `CCCCN(CCCC)CCCOC(=O)c1ccc(N)cc1` [BUTACAINE] displayed an AC50 in test [1] of over 30 µM.

The compound `Nc1nc(-n2cc(C(=O)O)c(=O)c3cc(F)c(N4CC(O)C4)c(Cl)c32)c(F)cc1F` [DELAFLOXACIN] registered an AC50 in test [1] of over 30 µM.

In the case of `O=C1NCC2(CCN(CCc3ccccc3)CC2)O1` [FENSPIRIDE], the AC50 in test [1] is over 30 µM.

The compound `CCN(CC)CCNc1ccc(C)c2sc3ccccc3c(=O)c12` [LUCANTHONE] registered an AC50 in test [1] of over 30 µM.

`CCOC(=O)C(c1c(O)c2ccccc2oc1=O)c1c(O)c2ccccc2oc1=O` [ETHYL BISCOUMACETATE]: the AC50 in [1] is over 30 µM.

As for `CC(C)NCC1CCc2cc(CO)c([N+](=O)[O-])cc2N1` (centres undefined) [OXAMNIQUINE], the AC50 is over 10 µM in test [2]; over 10 µM in test [3]; over 10 µM in [4]; over 10 µM in test [5]; over 10 µM in test [6]; over 30 µM in test [7]. Besides, the AC50 in test [8] is 26 µM; in test [9], over 30 µM; in [10], 13.4 µM; in [11], over 10 µM; in test [12] it was over 30 µM; in [13], over 30 µM.

`CC(=O)N(CC(O)CO)c1c(I)c(C(=O)NCC(O)CO)c(I)c(C(=O)NCC(O)CO)c1I` (centres undefined) [IOHEXOL]: the AC50 in test [2], in test [3], in test [4], in test [5], in [6] and in test [7] was over 10 µM in each case. Besides, the AC50 is over 10 µM in test [8]; over 30 µM in test [9]; over 10 µM in test [10]; over 30 µM in [11]; over 30 µM in test [12]; over 30 µM in [13].

`CCS(=O)(=O)N1CC(CC#N)(n2cc(-c3ncnc4[nH]ccc34)cn2)C1` [BARICITINIB]: the AC50 in test [1] is over 30 µM.

In [1], `C1N2CN3CN1CN(C2)C3` [METHENAMINE] came in with an AC50 of over 30 µM.

Consider `CN1CCC2=C(C1)c1ccccc1Cc1ccccc12` [SETIPTILINE], for which, in test [1], the AC50 is over 30 µM.

For `O=C(NC1CCN(CCCCC2(C(=O)NCC(F)(F)F)c3ccccc3-c3ccccc32)CC1)c1ccccc1-c1ccc(C(F)(F)F)cc1` [LOMITAPIDE], the AC50 in [1] was over 30 µM.

In test [1], `CCC1C(C)=NN=C(c2ccc(OC)c(OC)c2)c2cc(OC)c(OC)cc21` (centres undefined) [TOFISOPAM] gave an AC50 of over 30 µM.

As for `C[C@@H]1C[C@H]2[C@@H]3C[C@H](F)C4=CC(=O)C(Cl)=C[C@]4(C)[C@@]3(F)[C@@H](O)C[C@]2(C)[C@@]1(O)C(=O)CO` [HALOMETASONE], the AC50 in test [1] is over 30 µM.

For `N[C@@H](CSCC(=O)O)C(=O)O` [CARBOCYSTEINE], the concentration at half-maximal activity (AC50) in [2], in test [3], in test [4], in test [5], in [6] and in test [7] was over 30 µM in each case. Also, the AC50 in test [8], in test [9], in test [10], in [11], in test [12] and in test [13] was over 30 µM throughout.

For `NS(=O)(=O)c1cc(Cl)c(Cl)c(S(N)(=O)=O)c1` [DICHLORPHENAMIDE], the AC50 in test [2], in test [3], in test [4], in [5], in test [6] and in test [7] was over 10 µM throughout. Further, the AC50 is over 10 µM in [8]; over 30 µM in [9]; over 10 µM in [10]; over 10 µM in [11]; over 10 µM in test [12]; over 30 µM in test [13].

Regarding `NS(=O)(=O)c1cc(-c2nnn[nH]2)c(NCc2cccs2)cc1Cl` [AZOSEMIDE], the AC50 in [2], in test [3], in test [4], in [5], in [6] and in [7] was over 30 µM each time. Besides, the AC50 in test [8] was over 30 µM; in [9] it was over 30 µM; in test [10] it was over 30 µM; in test [11] it was 19 µM; in test [12], over 30 µM; in test [13] it was over 30 µM.

For the compound `C=C1C[C@@H]2[C@H](CC[C@]3(C)C(=O)CC[C@@H]23)[C@@]2(C)C=CC(=O)C=C12` [EXEMESTANE], the concentration at half-maximal activity (AC50) in test [2], in test [3], in test [4], in test [5], in [6] and in test [7] was over 10 µM in each case. Also, the AC50 was 36 µM in test [8]; over 30 µM in test [9]; 2.41 µM in test [10]; over 30 µM in test [11]; over 30 µM in test [12]; over 30 µM in [13].

Source of the values: ChEMBL document CHEMBL5291721, “A preclinical secondary pharmacology resource illuminates target-adverse drug reaction associations of marketed drugs” (Nat Commun, 2023).
